Measured values from patent US20120172384A1, “HETEROCYCLYLAMINOPYRIMIDINES AS KINASE INHIBITORS” (priority 2009, published 2012).

Target: T1, ZAP-70 (Homo sapiens, UniProt P43403)
T1 construct: endogenous in cells
T1 sequence (P43403 1-619): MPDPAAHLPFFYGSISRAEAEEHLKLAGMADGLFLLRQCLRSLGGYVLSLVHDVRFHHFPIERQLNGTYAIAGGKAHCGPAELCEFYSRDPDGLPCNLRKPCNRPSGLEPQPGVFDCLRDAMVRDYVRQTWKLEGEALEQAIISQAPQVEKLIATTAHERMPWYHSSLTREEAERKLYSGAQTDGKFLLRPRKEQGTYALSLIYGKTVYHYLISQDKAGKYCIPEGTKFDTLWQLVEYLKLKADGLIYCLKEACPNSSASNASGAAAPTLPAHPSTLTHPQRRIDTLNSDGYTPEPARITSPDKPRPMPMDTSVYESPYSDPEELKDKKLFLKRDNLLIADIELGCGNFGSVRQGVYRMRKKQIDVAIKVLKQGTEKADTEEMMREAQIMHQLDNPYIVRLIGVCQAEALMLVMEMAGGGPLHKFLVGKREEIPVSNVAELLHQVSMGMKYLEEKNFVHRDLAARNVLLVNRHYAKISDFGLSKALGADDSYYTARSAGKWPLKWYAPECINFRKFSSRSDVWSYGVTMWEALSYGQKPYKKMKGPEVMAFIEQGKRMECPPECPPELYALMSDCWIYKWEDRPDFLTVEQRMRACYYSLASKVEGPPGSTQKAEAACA
Test: ZAP-70 kinobeads assay
Type: binding
Settings: cell lysate, dot blot with ZAP-70 antibody
Description: (§1) The compounds of the present invention as described in the previous examples were tested in the ZAP-70 kinobeads assay as described (EP-A 1862802 and WO-A 2007/137867). Briefly, test compounds (at various concentrations) and the affinity matrix with the immobilized aminopyrido-pyrimidine ligand 24 are added to cell lysate aliquots and allowed to bind to the proteins in the lysate sample. After the incubation time the beads with captured proteins are separated from the lysate. Bound proteins are then eluted and the presence ZAP-70 is detected and quantified using a specific antibody in a dot blot procedure and the Odyssey infrared detection system.

| IC50 [nM] | SMILES |
| --- | --- |
| 1000 to 10000 | COc1ccc(Nc2nc(Nc3c(C)cnn3C)ncc2Cl)c(NS(C)(=O)=O)c1 [Example 14, N-(2-(5-chloro-2-(1,4-dimethyl-1H-pyrazol-5-ylamino)pyrimidin-4-ylamino)-5-methoxyphenyl)methanesulfonamide] |
| 1000 to 10000 | CCc1nn(C)c(Nc2ncc(Cl)c(Nc3ccc(OC)cc3NS(C)(=O)=O)n2)c1C [Example 15, N-(2-(5-chloro-2-(3-ethyl-1,4-dimethyl-1H-pyrazol-5-ylamino)pyrimidin-4-ylamino)-5-methoxyphenyl)methanesulfonamide] |
| 1000 to 10000 | COc1ccc(Nc2nc(Nc3c(C)noc3C)ncc2Cl)c(NS(C)(=O)=O)c1 [Example 19, N-(2-(5-chloro-2-(3,5-dimethylisoxazol-4-ylamino)pyrimidin-4-ylamino)-5-methoxyphenyl)methanesulfonamide] |
| 1000 to 10000 | CCn1ncc(C)c1Nc1ncc(Cl)c(Nc2ccc(OC)cc2NS(C)(=O)=O)n1 [Example 26, N-(2-(5-chloro-2-(1-ethyl-4-methyl-1H-pyrazol-5-ylamino)pyrimidin-4-ylamino)-5-methoxyphenyl)methanesulfonamide] |
| 100 to 1000 | CCC(C)n1nc(C)cc1Nc1ncc(Cl)c(Nc2ccc(OC)cc2NS(C)(=O)=O)n1 (centres unmarked) [Example 27, N-(2-(2-(1-sec-butyl-3-methyl-1H-pyrazol-5-ylamino)-5-chloropyrimidin-4-ylamino)-5-methoxyphenyl)methanesulfonamide] |
| 100 to 1000 | COc1ccc(Nc2nc(Nc3ccnn3CC3CC3)ncc2Cl)c(NS(C)(=O)=O)c1 [Example 60, N-(2-((5-chloro-2-((1-(cyclopropylmethyl)-1H-pyrazol-5-yl)amino)pyrimidin-4-yl)amino)-5-methoxyphenyl)methanesulfonamide] |
| 100 to 1000 | COc1ccc(Nc2nc(Nc3ccnn3C(C)C)ncc2Cl)c(NS(C)(=O)=O)c1 [Example 68, N-(2-((5-chloro-2-((1-isopropyl-1H-pyrazol-5-yl)amino)pyrimidin-4-yl)amino)-5-methoxyphenyl)methanesulfonamide] |

Target: T2, JAK3 (Homo sapiens, UniProt P52333)
T2 construct: endogenous in cells
T2 sequence (P52333 1-1124): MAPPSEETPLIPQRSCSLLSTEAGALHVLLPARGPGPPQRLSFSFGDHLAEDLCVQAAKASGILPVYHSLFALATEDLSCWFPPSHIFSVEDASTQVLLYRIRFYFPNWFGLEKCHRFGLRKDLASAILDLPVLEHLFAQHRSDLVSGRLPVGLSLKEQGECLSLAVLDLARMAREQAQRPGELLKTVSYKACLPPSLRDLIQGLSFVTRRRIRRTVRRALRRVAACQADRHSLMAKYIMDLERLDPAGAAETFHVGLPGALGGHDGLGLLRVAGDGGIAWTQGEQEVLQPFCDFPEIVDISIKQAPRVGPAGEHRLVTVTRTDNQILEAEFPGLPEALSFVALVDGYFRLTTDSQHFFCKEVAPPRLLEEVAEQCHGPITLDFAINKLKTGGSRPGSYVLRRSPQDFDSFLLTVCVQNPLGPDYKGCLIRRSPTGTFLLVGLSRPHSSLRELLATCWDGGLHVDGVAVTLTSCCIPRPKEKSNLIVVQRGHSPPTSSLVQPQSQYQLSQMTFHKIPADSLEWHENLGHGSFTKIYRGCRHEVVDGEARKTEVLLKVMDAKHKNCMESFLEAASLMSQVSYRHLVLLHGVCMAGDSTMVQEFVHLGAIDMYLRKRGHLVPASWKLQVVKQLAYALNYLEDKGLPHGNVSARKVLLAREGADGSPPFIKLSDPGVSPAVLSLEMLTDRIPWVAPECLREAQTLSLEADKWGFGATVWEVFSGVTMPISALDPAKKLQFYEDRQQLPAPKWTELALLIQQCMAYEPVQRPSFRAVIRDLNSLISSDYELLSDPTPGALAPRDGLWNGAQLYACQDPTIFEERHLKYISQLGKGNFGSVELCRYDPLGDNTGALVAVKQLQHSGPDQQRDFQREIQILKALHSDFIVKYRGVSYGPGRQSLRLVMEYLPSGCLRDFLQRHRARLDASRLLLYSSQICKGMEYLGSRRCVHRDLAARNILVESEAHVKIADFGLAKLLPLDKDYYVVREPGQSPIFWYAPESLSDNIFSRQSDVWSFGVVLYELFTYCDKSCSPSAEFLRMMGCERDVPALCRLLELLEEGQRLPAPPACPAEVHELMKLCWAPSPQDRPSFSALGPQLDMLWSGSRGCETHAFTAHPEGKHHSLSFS
Test: JAK3 kinobeads assay
Type: binding
Settings: cell lysate, dot blot with JAK3 specific antibody
Description: as §1
Compounds were tested by the procedure described in Example 102 but using a JAK3 specific antibody (Cell Signaling Technology, Inc., Danvers, US, catalogue number 3775) instead of a ZAP70 antibody.

| IC50 [nM] | SMILES |
| --- | --- |
| ≤ 100 | COc1nn(CC(F)F)cc1Nc1ncc(Cl)c(Nc2ccccc2NS(C)(=O)=O)n1 [Example 80, N-(2-((5-chloro-2-((1-(2,2-difluoroethyl)-3-methoxy-1H-pyrazol-4-yl)amino)pyrimidin-4-yl)amino)phenyl)methanesulfonamide] |
| ≤ 100 | Cc1nn(CC(F)F)cc1Nc1ncc(Cl)c(Nc2ccccc2NS(C)(=O)=O)n1 [Example 81, N-(2-((5-chloro-2-((1-(2,2-difluoroethyl)-3-methyl-1H-pyrazol-4-yl)amino)pyrimidin-4-yl)amino)phenyl)methanesulfonamide] |
| 100 to 1000 | COc1nn(CC(F)(F)F)cc1Nc1ncc(Cl)c(Nc2ccccc2NS(C)(=O)=O)n1 [Example 82, N-(2-((5-chloro-2-((3-methoxy-1-(2,2,2-trifluoroethyl)-1H-pyrazol-4-yl)amino)pyrimidin-4-yl)amino)phenyl)methanesulfonamide] |
| 100 to 1000 | Cc1cc(Nc2ncc(Cl)c(Nc3ccccc3NS(C)(=O)=O)n2)nn1CC(F)(F)F [Example 83, N-(2-((5-chloro-2-((5-methyl-1-(2,2,2-trifluoroethyl)-1H-pyrazol-3-yl)amino)pyrimidin-4-yl)amino)phenyl)methanesulfonamide] |
| ≤ 100 | CS(=O)(=O)Nc1ccccc1Nc1nc(Nc2cnn(CC(F)F)c2)ncc1F [Example 85, N-(2-((2-((1-(2,2-difluoroethyl)-1H-pyrazol-4-yl)amino)-5-fluoropyrimidin-4-yl)amino)phenyl)methanesulfonamide] |
| ≤ 100 | Cn1cc(Nc2ncc(Cl)c(Nc3cccc(F)c3NS(C)(=O)=O)n2)cn1 [Example 89, N-(2-((5-chloro-2-((1-methyl-1H-pyrazol-4-yl)amino)pyrimidin-4-yl)amino)-6-fluorophenyl)methanesulfonamide] |
| ≤ 100 | CCn1nc(Nc2ncc(Cl)c(Nc3cccc(F)c3NS(C)(=O)=O)n2)cc1C [Example 91, N-(2-((5-chloro-2-((1-ethyl-5-methyl-1H-pyrazol-3-yl)amino)pyrimidin-4-yl)amino)-6-fluorophenyl)methanesulfonamide] |
| ≤ 100 | Cn1nc(Nc2ncc(Cl)c(Nc3ccccc3NS(C)(=O)=O)n2)cc1C(=O)O [Example 92, 3-((5-chloro-4-((2-(methylsulfonamido)phenyl)amino)pyrimidin-2-yl)amino)-1-methyl-1H-pyrazole-5-carboxylic acid] |
| ≤ 100 | COCCn1cc(Nc2ncc(Cl)c(Nc3cccc(F)c3NS(C)(=O)=O)n2)cn1 [Example 93, N-(2-((5-chloro-2-((1-(2-methoxyethyl)-1H-pyrazol-4-yl)amino)pyrimidin-4-yl)amino)-6-fluorophenyl)methanesulfonamide] |
| ≤ 100 | CNC(=O)c1cc(Nc2ncc(Cl)c(Nc3ccccc3NS(C)(=O)=O)n2)nn1C [Example 97, 3-((5-chloro-4-((2-(methylsulfonamido)phenyl)amino)pyrimidin-2-yl)amino)-N,1-dimethyl-1H-pyrazole-5-carboxamide] |
| ≤ 100 | Cn1cc(Nc2ncc(F)c(Nc3cccc(F)c3NS(C)(=O)=O)n2)cn1 [Example 99, N-(2-fluoro-6-((5-fluoro-2-((1-methyl-1H-pyrazol-4-yl)amino)pyrimidin-4-yl)amino)phenyl)methanesulfonamide] |
| ≤ 100 | CCNC(=O)c1cc(Nc2ncc(Cl)c(Nc3ccccc3NS(C)(=O)=O)n2)nn1C [Example 100, 3-((5-chloro-4-((2-(methylsulfonamido)phenyl)amino)pyrimidin-2-yl)amino)-N-ethyl-1-methyl-1H-pyrazole-5-carboxamide] |
| ≤ 100 | Cn1nc(Nc2ncc(Cl)c(Nc3ccccc3NS(C)(=O)=O)n2)cc1C(=O)NCCO [Example 101, 3-((5-chloro-4-((2-(methylsulfonamido)phenyl)amino)pyrimidin-2-yl)amino)-N-(2-hydroxyethyl)-1-methyl-1H-pyrazole-5-carboxamide] |

Second part, the compound before the results:

| SMILES | IC50 [nM] |
| --- | --- |
| Cc1cc(Nc2ncc(F)c(Nc3ccccc3NS(C)(=O)=O)n2)nn1CC(F)(F)F [Example 75, N-(2-((5-fluoro-2-((5-methyl-1-(2,2,2-trifluoroethyl)-1H-pyrazol-3-yl)amino)pyrimidin-4-yl)amino)phenyl)methanesulfonamide] | 1000 to 10000 |
| Cc1cc(Nc2ncc(Cl)c(Nc3cccc(F)c3NS(C)(=O)=O)n2)nn1C [Example 78, N-(2-((5-chloro-2-((1,5-dimethyl-1H-pyrazol-3-yl)amino)pyrimidin-4-yl)amino)-6-fluorophenyl)methanesulfonamide] | 100 to 1000 |
| CCCn1ccc(Nc2ncc(Cl)c(Nc3cccc(F)c3NS(C)(=O)=O)n2)n1 [Example 79, N-(2-((5-chloro-2-((1-propyl-1H-pyrazol-3-yl)amino)pyrimidin-4-yl)amino)-6-fluorophenyl)methanesulfonamide] | 100 to 1000 |
